Measured values taken from patent US6613784B1, “Nitroxyderivatives having antinflammatory, analgesic and antithrombotic activity” (Nicox S.A., priority 1999, dated 2003).
Like-named read-outs stand apart in the source and are kept apart here.

Key:
[1] = system: rabbit aorta smooth muscle; experiment: Inhibition of smooth muscle contraction, rabbit aorta in organ bath; set-up: species or system New Zealand White Rabbits; conditions: Oryctolagus cuniculus, pre-contracted with phenylephrine (10 μM)
Experimental: (§1) New Zealand White Rabbits (2.0-2.5 kg) were killed by cervical dislocation, cavernosal tissue (corpus canvernosus) and aorta excised.
(§2) The tissue was mounted in organ baths for recording of isometric tension, according to the method described by Khan MA et al (BJU Int. 1999 84(6):720-4). Tissues were pre-contracted with phenylephrine (10 μM) and relaxation responses to carbachol assessed in the presence of the compound to be tested.
(§3) The compound of the invention used in the assay was 2-acetyloxybenzoic acid 6-(nitroxymethyl)-2-pyridinylmethyl ester hydrochloride (NCX 4050), which synthesis is described in preceding example 1.
(§4) The reference compound was 2-acetoxybenzoic acid (3-nitroxymethyl)phenyl ester of formula [drawing 34]

[2] = system: rabbit corpus cavernosum smooth muscle; experiment: Inhibition of smooth muscle contraction, rabbit corpus cavernosum in organ bath; set-up: species or system New Zealand White Rabbits; conditions: Oryctolagus cuniculus, pre-contracted with phenylephrine (10 μM)
Experimental: as §1, §2, §3, §4

[3] = system: human vascular smooth cell proliferation; experiment: Inhibition of smooth muscle cell proliferation (3H-thymidine); type: cell-based; conditions: 10% FCS
Experimental: Human saphenous veins were cultured by standard explant methods (J. Cardiovasc., Pharmacol. 1999, 33(2), 204-11). Tissues were collected into sterile pots containing PBS, penicillin and streptomycin. Under sterile tissue culture conditions, tissues were cut into small pieces (approximately 1 mg weight) and placed into a standard culture medium containing 20% fetal calf serum (FCS) for several days (medium changed every 2-4 days). ^3H-thymidine was measured in the DNA fraction of cells cultured into 48 well plates. Cells were cultured to confluence in the medium containing 10% FCS. Cells were deprived of serum for 24 h before the addition of 10% FCS, together with different concentration of steroids. After 24 h, ^3H-thymidine was added to the cells for 4 h. Cells were washed with phosphate buffered saline and ethanol. DNA was extracted with sodium hydroxide solution and the ^3H material counted by scintillation. The data represents observations made in triplicate wells.
Table 2 reports results obtained on the inhibitory effect of the tested compounds on human vascular smooth cell proliferation.

[4] = concentration (log M) −4, human saphenous vein cells
[5] = concentration (log M) −5, human saphenous vein cells

SMILES	inhibition at 100 µM ([1]; concentration (log M) −4)	inhibition at 10 µM ([1]; concentration (log M) −5, read-out: % inhibition rabbit aorta)	inhibition at 10 µM ([2]; concentration (log M) −5, read-out: % inhibition rabbit corpus cav)	% inhibition cell proliferation [3, 4]	% inhibition cell proliferation [3, 5]	inhibition at 10 µM ([1]; read-out: % inhibition rabbit aorta, concentration (log M) −5)	inhibition at 10 µM ([2]; read-out: % inhibition rabbit corpus cav, concentration (log M) −4)	inhibition at 10 µM ([2]; read-out: % inhibition rabbit corpus cav, concentration (log M) −5)
CC(=O)Oc1ccccc1C(=O)Oc1cccc(CO[N+](=O)[O-])c1 [NCX 4016, 2-acetoxybenzoic acid (3-nitroxymethyl)phenyl ester]	20%	18%	14%	60%	43%			
CC(=O)Oc1ccccc1C(=O)OCc1cccc(CO[N+](=O)[O-])n1.Cl [NCX 4050, 2-Acetyloxybenzoic Acid 6-(Nitroxymethyl)-2-pyridinylmethyl Ester Chlorhydrate]				95%	82%	80%	85%	63%
